Data published in article PMC6934184, “Selective DNA-PKcs inhibition extends the therapeutic index of localized radiotherapy and chemotherapy” (The Journal of Clinical Investigation, 2019).

Biological target: T1, STK38L (NDR2) (Homo sapiens, UniProt Q9Y2H1)
T1 construct: purchased Thermo Fisher Scientific (Life Technologies) SelectScreen
Assay: SelectScreen LanthaScreen
Assay type: binding
Settings: read-out: % displacement
Summary of the method: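 SelectScreen broad panel; activity (Z'LYTE, Adapta) plus binding formats. ATP: Km app for CSF1R Z'LYTE; 10 for CAMK1 Adapta. Readout = % per kinase.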

T1 sequence (Q9Y2H1 whole entry): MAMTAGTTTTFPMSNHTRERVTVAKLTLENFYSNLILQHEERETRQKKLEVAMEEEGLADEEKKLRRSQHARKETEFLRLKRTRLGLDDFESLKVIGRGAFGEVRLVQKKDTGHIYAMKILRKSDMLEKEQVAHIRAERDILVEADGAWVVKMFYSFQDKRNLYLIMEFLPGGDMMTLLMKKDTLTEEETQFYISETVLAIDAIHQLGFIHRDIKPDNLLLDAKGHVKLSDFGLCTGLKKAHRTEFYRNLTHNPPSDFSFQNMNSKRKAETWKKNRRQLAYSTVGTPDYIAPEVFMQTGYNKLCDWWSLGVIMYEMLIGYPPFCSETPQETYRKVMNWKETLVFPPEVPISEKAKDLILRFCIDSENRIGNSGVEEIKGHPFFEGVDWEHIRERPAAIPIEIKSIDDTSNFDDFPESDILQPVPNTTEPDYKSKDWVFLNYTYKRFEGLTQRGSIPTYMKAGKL

**Q.** `CN(C(=O)CN1CCOCC1)c1ccc2sc3c(-c4cccc5c(=O)cc(N6CC7CCC(C6)O7)oc45)cccc3c2c1` [NU5455] was tested. Which inhibition at 1 µM did it give?
**A.** -8.4%
